Literature values, collected in patent US20070117867A1, “Kit comprising three independent compositions and methods for building muscle, increasing strength, increasing muscle size, increasing muscle performance and reducing muscle fatigue” (priority 2005, published 2007).

Experiments:
[1] = test system: type II diabetics
[2] = test system: protein synthesis; settings: for the purposes of muscle growth and development
[3] = test system: muscle; settings: Creatine supplementation

SMILES: O=C(O)CCCCC1CCSS1 (stereo not drawn) [Alpha Lipoic Acid]
- body's utilization of blood sugar [1]: significantly increase

SMILES: CC(C)C[C@H](N)C(=O)O [Leucine]
- protein synthesis [2]: directly activate

SMILES: CN(CC(=O)O)C(=N)N [Creatine]
- concentration of Creatine in the muscle [3]: increase
- resynthesis of Phosphocreatine ([3]; within 2 minutes of recovery following exercise): increase
